The nature of data set [1]: Toxicity in rabbit RBC assessed as hemolytic index. Format: cell-based, Oryctolagus cuniculus. The conditions noted are these: erythrocyte.
In data set [2] the test system is Patiria pectinifera. In words: Effect on starfish embryo development assessed as abnormal embryo induction at bastula or gastula stage after 24 hrs by lactoorcein staining. It is filed as functional.
Data set [3] concerns Hemicentrotus pulcherrimus. Briefly: Inhibition of first cleavage in sea urchin embryo after 1.5 hrs by microscopy. Format: functional.
Data set [4] can be described thus: Toxicity in sea urchin embryo assessed as inhibition of embryo development before morula stage after 24 hrs by microscopy. The conditions noted are these: hemicentrotus pulcherrimus.
For data set [5], the system named is Patiria pectinifera. In words: Inhibition of actin polymerization in starfish during embryogenesis.
Data set [6] deals with Patiria pectinifera. In words: Effect on starfish embryo development assessed as incomplete cytokinesis by lactoorcein staining. It is filed as functional.
The subject of data set [7] is Patiria pectinifera. In words: Effect on starfish embryo development assessed as occurrence of multinuclei by lactoorcein staining. It is filed as functional.

Values after ≈ are worked out from the molar mass of the structure shown. Active and inactive are the calls of the source. The rule behind the calls is not given here.

For the compound `CC(C)CC(=O)C[C@@](C)(O)[C@H]1CC[C@H]2[C@@H]3C[C@H](OC4O[C@H](C)[C@@H](O)[C@H](OC5OC[C@@H](OC6O[C@H](CO)[C@H](O)[C@H](O)[C@H]6OC6O[C@H](C)[C@H](O)[C@H](O)[C@H]6O)[C@H](O)[C@H]5OC5O[C@H](C)[C@@H](O)[C@H](O)[C@H]5O)[C@H]4O)[C@H]4C[C@@H](OS(=O)(=O)[O-])CC[C@]4(C)C3=CC[C@@]21C.[Na+]` (some centres not stated), the HI in data set [1] turned out to be 22000. For the same compound, the ED50 in the data set with Patiria pectinifera [2] was 100 µg/mL; in data set [3], 10 µg/mL. The LD99 in data set [4] was 5 µg/mL. Further, the outcome with Patiria pectinifera [5] was Active.

`CC(C)=CC(=O)C[C@@](C)(O)[C@H]1CC[C@H]2[C@@H]3C[C@H](OC4O[C@H](C)[C@@H](O)[C@H](OC5OC[C@@H](OC6O[C@H](C)[C@@H](O)[C@H](O)[C@H]6OC6O[C@H](C)[C@H](O)[C@H](O)[C@H]6O)[C@H](O)[C@H]5OC5O[C@H](C)[C@@H](O)[C@H](O)[C@H]5O)[C@H]4O)[C@H]4C[C@@H](OS(=O)(=O)[O-])CC[C@]4(C)C3=CC[C@@]21C.[Na+]` (some centres not stated): the HI in data set [1] was less than 2420. The ED50 with Patiria pectinifera [2] was 200 µg/mL; in data set [3] it was 50 µg/mL. Besides, the LD99 in data set [4] turned out to be 50 µg/mL. The result with Patiria pectinifera [5] was Active.

In the case of `CC(C)C(C)C(=O)C[C@@](C)(O)[C@H]1CC[C@H]2[C@@H]3C[C@H](OC4O[C@H](C)[C@@H](O)[C@H](OC5OC[C@@H](OC6O[C@H](C)[C@@H](O)[C@H](O)[C@H]6OC6O[C@H](C)[C@H](O)[C@H](OC7O[C@H](C)[C@H](O)[C@H](O)[C@H]7O)[C@H]6O)[C@H](O)[C@H]5OC5O[C@H](C)[C@@H](O)[C@H](O)[C@H]5O)[C@H]4O)[C@H]4C[C@@H](OS(=O)(=O)[O-])CC[C@]4(C)C3=CC[C@@]21C.[Na+]` (some centres not stated), the HI in data set [1] came to 10700. The ED50 was determined as 200 µg/mL in the data set on Patiria pectinifera [2] and 10 µg/mL in data set [3]. Also, the LD99 in data set [4] was found to be 5 µg/mL. Moreover, the outcome in the data set with Patiria pectinifera [5] was Active.

As for `CC(C)C(C)C(=O)C[C@@](C)(O)[C@H]1CC[C@H]2[C@@H]3C[C@H](OC4O[C@H](C)[C@@H](O)[C@H](OC5OC[C@@H](OC6O[C@H](CO)[C@H](O)[C@H](O)[C@H]6OC6O[C@H](C)[C@H](O)[C@H](O)[C@H]6O)[C@H](O)[C@H]5OC5O[C@H](C)[C@@H](O)[C@H](O)[C@H]5O)[C@H]4O)[C@H]4C[C@@H](OS(=O)(=O)[O-])CC[C@]4(C)C3=CC[C@@]21C.[Na+]` (some centres not stated), the result in the data set on Patiria pectinifera [6], in the data set with Patiria pectinifera [7] and with Patiria pectinifera [5] was Active. Also, in data set [1], the HI is recorded as 31400. Also, the figures for the ED50 (in the data set on Patiria pectinifera [2]; in data set [3]) were 50 µg/mL and 5 µg/mL, respectively. In addition, the LD99 in data set [4] is 2 µg/mL.

Take `CC(C)CC(=O)C[C@@](C)(O)[C@H]1CC[C@H]2[C@@H]3C[C@H](OC4O[C@H](C)[C@@H](O)[C@H](OC5OC[C@@H](OC6O[C@H](CO)[C@H](O)[C@H](O)[C@H]6OC6O[C@H](C)[C@H](O)[C@H](OC7O[C@H](C)[C@H](O)[C@H](O)[C@H]7O)[C@H]6O)[C@H](O)[C@H]5OC5O[C@H](C)[C@@H](O)[C@H](O)[C@H]5O)[C@H]4O)[C@H]4C[C@@H](OS(=O)(=O)[O-])CC[C@]4(C)C3=CC[C@@]21C.[Na+]` (some centres not stated): in data set [1], the HI is on record as 11400. The ED50 in the data set on Patiria pectinifera [2] is 200 µg/mL; in data set [3] it was 15 µg/mL. Also, the LD99 in data set [4] came to 5 µg/mL. Also, the outcome in the data set with Patiria pectinifera [5] was Active.

`CC(C)CC(=O)C[C@@](C)(O)[C@H]1CC[C@H]2[C@@H]3C[C@H](OC4O[C@H](C)[C@@H](O)[C@H](OC5OC[C@@H](OC6O[C@H](C)[C@@H](O)[C@H](O)[C@H]6OC6O[C@H](C)[C@H](O)[C@H](OC7O[C@H](C)[C@H](O)[C@H](O)[C@H]7O)[C@H]6O)[C@H](O)[C@H]5OC5O[C@H](C)[C@@H](O)[C@H](O)[C@H]5O)[C@H]4O)[C@H]4C[C@@H](O)CC[C@]4(C)C3=CC[C@@]21C` (some centres not stated): in data set [1], the HI was less than 2550. Also, the results for the ED50 (in the data set with Patiria pectinifera [2]; in data set [3]) were 100 µg/mL (≈ 77.2 µM) and 50 µg/mL (≈ 38.6 µM), respectively. Besides, in data set [4], the LD99 was found to be 10 µg/mL. In addition, the result in the data set with Patiria pectinifera [5] was Active.

The values are drawn from ChEMBL document CHEMBL1151633, “Biological Activities of Asterosaponins With Special Reference to Structure-Activity Relationships” (J Nat Prod, 1984).
